From US5426103A, “Certain macrocyclic lactam derivatives” (Ciba-Geigy Corporation, priority 1993, dated 1995)

Legend:
ANF-induced natriuresis = assay: potentiation of the natriuretic effect of ANF in anesthetized rats; assay type: in vivo, rat (male Sprague-Dawley); details: rat, 30 mg/kg in polyethylene glycol 400, intraduodenally; ANF 1 μg/kg i.v. bolus
Method: The potentiation of the natriuretic effect of ANF can be determined as follows: Male Sprague-Dawley rats (280-360 g) are anesthetized with Inactin (100 mg/kg i.p.) and instrumented with catheters in the femoral artery, femoral vein and urinary bladder to measure arterial pressure, administer ANF and collect urine, respectively. A continuous infusion of normal saline (33 μl/min) is maintained throughout the experiment to promote diuresis and sodium excretion. The experimental protocol consists of an initial 15 minute collection period (designated as pre-control) followed by three additional collection periods. Immediately after completion of the pre-control period, test compound or vehicle is administered; nothing is done for the next 45 minutes. […] At the conclusion of this period, ANF is administered (1 μg/kg i.v. bolus) to all animals and arterial pressure and renal parameters are determined during two consecutive 15 minutes collection periods. Mean arterial pressure, urine flow and urinary sodium excretion are determined for all collection periods. Blood pressure is measured with a Gould p50 pressure transducer, urine flow is determined gravimetrically, sodium concentration is measured by flame photometry, and urinary sodium excretion is calculated as the product of urine flow and urine sodium concentration.

plasma ANF = assay: effect on rat plasma ANF concentration in ANF-infused conscious rats; assay type: in vivo, rat (male Sprague-Dawley); details: about 1-10 mg/kg p.o., ANF infusion 450 ng/kg/min i.v.
Method: The effect of the compounds of the invention on rat plasma ANF concentration can be determined as follows:
Male Sprague-Dawley rats (275-390 g) are anesthetized with ketamine (150 mg/kg)/acepromazine (10%) and instrumented with catheters in the femoral artery and vein to obtain blood samples and infuse ANF, respectively. The rats are tethered with a swivel system and are allowed to recover for 24 hours before being studied in the conscious, unrestrained state.
In this assay, plasma ANF levels are determined in the presence and absence of NEP inhibition. On the day of study, all rats are infused continuously with ANF at 450 ng/kg/min. i.v. for the entire 5 hours of the experiment. Sixty minutes after beginning the infusion, blood samples for baseline ANF measurements are obtained (time 0) and the rats are then randomly divided into groups treated with the test compound or vehicle. Additional blood samples are taken 30, 60, 120, 180 and 240 minutes after administration of the test compound.
Plasma concentrations are determined by a specific radioimmunoassay. […] The supermatant is decanted and the pellets counted in a gamma counter. […] Plasma ANF levels are expressed as a percent of those measured in vehicle-treated animals which received ANF alone (450 ng/kg/min i.v.).

[1] = test system: DOCA-salt hypertensive rats; assay: antihypertensive effect in DOCA-salt hypertensive rats; assay type: in vivo; details: DOCA-salt hypertensive rat, 30 mg/kg p.o. in 3% corn starch
Method: The antihypertensive effect can be determined in desoxycorticosterone acetate (DOCA)-salt hypertensive rats. DOCA-salt hypertensive rats (280-380 g) are prepared by the standard method. Rats underwent a unilateral nephrectomy and one week later are implanted with silastic pellets containing 100 mg/kg of DOCA. The rats are maintained on 1% NaCl/0.2% KCl drinking water for three to five weeks until sustained hypertension is established. The antihypertensive activity is evaluated at this time. Two days before an experiment, the rats are anesthetized with methoxyflurane and instrumented with catheters in the femoral artery to measure arterial blood pressure. Forty-eight hours later, baseline arterial pressure and heart rate are recorded during a 1 hour period. The test compound (30 mg/kg p.o.) or vehicle is then administered and the same cardiovascular parameters are monitored for an additional 5 hours.

For `CC(=O)SC[C@H]1CCCCCC[C@H](C(=O)N2C[C@H](O)C[C@H]2C(=O)OCc2ccccc2)NC1=O` [N-[[trans 3-(acetylthiomethyl)-2-oxo-1-azacyclodecan-10-yl]-carbonyl]-trans-4-hydroxy-L-proline benzyl ester], the “potentiation of ANF-induced natriuresis” value (ANF-induced natriuresis) was “significant potentiation of ANF-induced natriuresis”, the “increase in plasma ANF levels” value (plasma ANF) was “significant increases in plasma ANF levels” and the “reduction in blood pressure” value [1] was “significant reduction in blood pressure”.
